# Reference: patent US11840551B2, “Compositions and methods of modulating the immune response by activating alpha protein kinase 1” (Shanghai Yao Yuan Biotechnology Co., Ltd., priority 2017, dated 2023)
# Tests used:
# HBV = experiment: HBV-AAV mouse model; assay type: in vivo, C57BL/6 mice
# Protocol: Administration of Compound 28 (0.1 mg/kg, twice weekly “BIW”) led to downregulation of HBV DNA expression and a decrease in serum levels of HBsAg, and HBeAg in the HBV-AAV mouse model. At day 1, male C57BL/6 mice were intravenously injected with AAV8-1.3HBV (1×10^11 v/g). After days 28 and 31, each mouse was then intraperitoneally injected with 0.1 mg/kg compound 28 or PBS control. At day 35, mouse serum was collected for HBV DNA qPCR analysis, HBsAg and HBeAg serum analysis by ELISA.
# HBsAg, adw = experiment: Immunization with HBsAg, adw, specific total IgG serum titers (ELISA); assay type: in vivo, C57BL/6J mice; details: intradermal, adw combined with 1 nmol/dose compound 28, days 0 and 14, sera at day 35
# Protocol: Eight-week-old C57BL/6J mice (females) were intradermally (I.D.) immunized at day 0 with HBsAg, adw (1 mg/dose), or HBsAg, adw at 1 mg/dose combined with compound 28 (1 nmol/dose). Mice were boosted with a second immunization at day 14 and the sera collected at day 35. HBsAg, adw-specific total IgG serum titers (OD450) were determined by ELISA. Anti-HBsAg, adw IgG titers were more than 2× higher when HBsAg, adw was combined with 1 nmol/dose of compound 28 than when HBsAg, adw was injected alone (FIG. 35).
# [1] = system: eosinophils, dendritic cells, neutrophils; experiment: Porcine pancreas elastase (PPE) model, immune cells in bronchoalveolar lavage (flow cytometry); assay type: in vivo, C57BL/6 mice; details: 4 nmol/dose and 20 nmol/dose intraperitoneal on days -1, 0, 1; BAL on day 2
# Protocol: Eight-week-old male C57BL/6 mice were grouped (N=8/group) and were intraperitoneally (I.P.) injected with compound 28 at 0, 4, or 20 nmol/dose on days −1, 0, and 1. In addition, mice were intratracheally (I.Tr.) administrated with 0 or 30 μg/dose of porcine pancreas elastase (PPE) dissolved in 50 μL saline on day 0. Mice were sacrificed on day 2 and the immune cells were collected by bronchoalveolar lavage (BAL). Cells were then subjected to fluorophore-conjugated antibody staining and analyzed by flow cytometry. Data were processed with a FlowJo […] (Treestar) Immune cells were gated as singlets >live cells>CD11c^highSiglecF^lowMHCII^high (dendritic cells), CD11c^lowCD11b^highLy-6G^high (neutrophils), and CD11c^lowCD11b^highLy-6G^lowSiglecF^high (eosinophils).
# ALPK1 = target: T1, ALPK1 (Mus musculus, UniProt Q9CXB8); experiment: Serum RANTES levels as marker of ALPK1 activation in vivo; design: species or system C57/B6 mice; details: 10 nmole subcutaneous, serum at 24 hours or 48 hours, compared to Compound 15
# T1 construct: C57/B6 mice (n=3 mice/group) were injected subcutaneously; from tissue; host or cells: whole animal, C57/B6 mice
# T1 sequence (Q9CXB8 1-1231): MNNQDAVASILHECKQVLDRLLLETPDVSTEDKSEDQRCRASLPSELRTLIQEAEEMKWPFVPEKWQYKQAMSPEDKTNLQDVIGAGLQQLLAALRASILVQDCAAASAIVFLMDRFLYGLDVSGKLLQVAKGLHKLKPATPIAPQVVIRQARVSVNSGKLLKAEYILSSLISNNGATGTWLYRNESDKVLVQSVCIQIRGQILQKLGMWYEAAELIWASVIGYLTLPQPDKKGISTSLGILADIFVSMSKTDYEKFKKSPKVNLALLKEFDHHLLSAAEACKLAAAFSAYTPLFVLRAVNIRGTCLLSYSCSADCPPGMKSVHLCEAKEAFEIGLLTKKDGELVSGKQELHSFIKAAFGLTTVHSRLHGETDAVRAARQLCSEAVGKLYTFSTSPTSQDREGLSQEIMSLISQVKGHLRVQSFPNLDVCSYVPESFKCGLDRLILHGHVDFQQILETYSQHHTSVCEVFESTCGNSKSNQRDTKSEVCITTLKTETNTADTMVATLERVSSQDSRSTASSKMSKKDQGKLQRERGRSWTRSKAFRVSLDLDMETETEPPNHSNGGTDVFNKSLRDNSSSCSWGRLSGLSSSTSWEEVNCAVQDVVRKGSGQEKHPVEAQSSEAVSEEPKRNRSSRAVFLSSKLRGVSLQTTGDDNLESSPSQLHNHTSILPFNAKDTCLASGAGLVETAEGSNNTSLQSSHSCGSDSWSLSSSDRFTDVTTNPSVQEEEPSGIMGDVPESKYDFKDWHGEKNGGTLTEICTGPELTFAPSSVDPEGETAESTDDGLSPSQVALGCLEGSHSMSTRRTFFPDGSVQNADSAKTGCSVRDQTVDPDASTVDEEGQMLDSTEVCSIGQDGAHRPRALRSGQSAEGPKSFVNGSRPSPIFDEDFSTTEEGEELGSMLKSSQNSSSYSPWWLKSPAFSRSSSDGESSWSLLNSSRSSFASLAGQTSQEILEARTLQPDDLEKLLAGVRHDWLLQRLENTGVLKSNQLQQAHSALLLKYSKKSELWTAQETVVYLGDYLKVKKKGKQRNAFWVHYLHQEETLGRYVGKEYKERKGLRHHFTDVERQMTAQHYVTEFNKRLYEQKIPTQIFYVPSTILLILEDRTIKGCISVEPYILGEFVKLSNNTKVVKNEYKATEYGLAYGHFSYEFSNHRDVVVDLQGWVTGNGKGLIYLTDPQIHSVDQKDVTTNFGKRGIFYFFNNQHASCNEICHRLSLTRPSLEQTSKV
# Protocol: The ability of Compounds 15 and 28 to stimulate ALPK1 activation in vivo was tested by monitoring serum levels of the chemokine RANTES (CCLS), which is elevated upon activation of ALPK1. Briefly, C57/B6 mice (n=3 mice/group) were injected subcutaneously with PBS (negative control) or 10 nmole of Compound 15 or Compound 28. Serum was collected at 24 hours or 48 hours post injection.
# [2] = 0.1 mg/kg intraperitoneal at days 28 and 31, serum at day 35, ELISA
smiles,measurement,setting,value
"CC(=O)OC[C@H](F)[C@H]1O[C@@H](OP(=O)(O)OP(O)(=S)OC[C@H]2O[C@@H](n3cnc4c(N)ncnc43)[C@H](O)[C@@H]2O)[C@@H](OC(C)=O)[C@@H](OC(C)=O)[C@@H]1OC(C)=O (stereo partly drawn) [Compound 28, (2S,3S,4S,5S,6S)-2-((S)-2-acetoxy-1-fluoroethyl)-6-(((((((2R,3S,4R,5R)-5-(6-amino-9H-purin-9-yl)-3,4-dihydroxytetrahydrofuran-2-yl)methoxy)(hydroxy)phosphorothioyl)oxy)(hydroxy)phosphoryl)oxy)tetrahydro-2H-pyran-3,4,5-triyl triacetate]",serum levels of HBeAg,HBV; [2],marked decrease
same,serum levels of HBsAg,HBV; [2],marked decrease
same,HBV DNA expression,"HBV; 0.1 mg/kg intraperitoneal at days 28 and 31, serum at day 35, qPCR",marked decrease
same,"Anti-HBsAg, adw IgG titers relative to HBsAg, adw injected alone","HBsAg, adw",more than 2 ×
same,increase in the production of dendritic cells after PPE administration,[1],significantly suppressed
same,increase in the production of eosinophils after PPE administration,[1],significantly suppressed
same,increased production of neutrophils after PPE administration,[1],also suppressed but only at the 20 nmol/dose level
same,duration of immune activation (serum RANTES),ALPK1,showed a longer duration of immune activation
